Values belong to the molecule of their own block, whether it stands above or below them.
Key:
Type in all cases: biochemical
[1] = molecular target: T1, LATS2 (Homo sapiens, UniProt Q9NRM7); assay: Off-chip Mobility Shift Assay (MSA method), kinase inhibition; details: MSA method; 10 steps from 10 μM to 0.3 nM
T1 sequence (Q9NRM7 1-1088): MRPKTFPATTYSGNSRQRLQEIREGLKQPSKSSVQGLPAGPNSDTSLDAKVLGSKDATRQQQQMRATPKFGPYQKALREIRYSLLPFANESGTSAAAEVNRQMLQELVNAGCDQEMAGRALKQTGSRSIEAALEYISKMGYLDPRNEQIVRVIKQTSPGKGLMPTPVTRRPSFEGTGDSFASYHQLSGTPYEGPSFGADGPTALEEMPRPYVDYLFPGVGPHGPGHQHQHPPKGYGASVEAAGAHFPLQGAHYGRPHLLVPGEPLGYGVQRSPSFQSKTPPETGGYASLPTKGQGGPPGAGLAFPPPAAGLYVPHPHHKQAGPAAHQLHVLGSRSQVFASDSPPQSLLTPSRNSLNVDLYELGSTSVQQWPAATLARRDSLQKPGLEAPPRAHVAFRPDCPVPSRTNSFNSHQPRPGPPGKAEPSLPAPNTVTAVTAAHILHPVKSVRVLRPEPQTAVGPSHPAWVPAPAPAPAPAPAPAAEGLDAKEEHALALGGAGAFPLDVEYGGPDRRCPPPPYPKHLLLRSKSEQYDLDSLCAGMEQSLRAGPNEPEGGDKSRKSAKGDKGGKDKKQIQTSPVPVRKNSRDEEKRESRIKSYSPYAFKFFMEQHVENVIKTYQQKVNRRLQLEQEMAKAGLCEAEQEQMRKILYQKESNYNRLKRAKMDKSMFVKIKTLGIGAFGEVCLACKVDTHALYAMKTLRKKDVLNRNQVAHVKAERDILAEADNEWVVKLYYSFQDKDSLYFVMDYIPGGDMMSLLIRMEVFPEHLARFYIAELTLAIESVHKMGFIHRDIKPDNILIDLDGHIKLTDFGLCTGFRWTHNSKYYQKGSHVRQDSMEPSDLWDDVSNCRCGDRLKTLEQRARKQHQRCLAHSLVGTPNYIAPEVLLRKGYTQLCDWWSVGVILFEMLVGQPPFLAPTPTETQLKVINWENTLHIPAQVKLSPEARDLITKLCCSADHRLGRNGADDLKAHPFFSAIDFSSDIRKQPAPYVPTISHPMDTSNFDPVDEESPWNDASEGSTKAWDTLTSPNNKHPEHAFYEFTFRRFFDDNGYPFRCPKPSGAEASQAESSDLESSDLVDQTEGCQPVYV
Method: For compound k-1:B-1, inhibitory activity evaluation (calculation of 50% inhibitory concentration (IC50)) was performed on 8 kinds of kinases (CGK2, LATS2, MSK1, p70S6K, PKACα, PKACβ, SGK2, SGK3). The activity was measured using the Off-chip Mobility Shift Assay (MSA method) described below. The compound was added such that the test concentration of k-1:B-1 was in 10 steps from the final concentration of 10 μM to 0.3 nM.
As an analysis method of the data, the mean signal of the control well containing all reaction components was set to 0% inhibition, the mean signal without enzyme addition was set to 100% inhibition, and the inhibition rate was calculated from the mean signal of 2 wells of each test substance test. The IC50 value was obtained by approximating a plot based on the test substance concentration and inhibition rate to a 4 parameter logistics curve by using the Excel Solver add-in and by the non-linear least squares method.
(§1) 5 μL of k-1:B-1 solution at 4-fold concentration, 5 μL of substrate/ATP/metal solution at 4-fold concentration, and 10 μL of kinase solution at 2-fold concentration, each prepared with assay buffer (20 mM HEPES, 0.01% Triton X-100, 2 mM DTT, pH 7.5), were mixed in the wells of a polypropylene 384-well plate and reacted at room temperature for 1 or 5 hr. Successively, 70 μL of Termination Buffer (QuickScout Screening Assist MSA; Carna Biosciences) was added to discontinue the reaction. Then, the substrate peptide and the phosphorylated peptide in the reaction solution were separated and quantified by the LabChip system (Perkin Elmer). The kinase reaction was evaluated by the resultant product ratio (P/(P+S)) calculated from the substrate peptide peak height (S) and the phosphorylated peptide peak height (P).
For compounds k-1:H-7, k-1:H-1, k-1:D-1, k-1:J-1, and k-1:B-1, inhibitory rate at 100 nM was calculated on 8 kinds of kinases (CGK2, LATS2, MSK1, p70S6K, PKACα, PKACβ, SGK2, SGK3). The activity was measured using the MSA method. As an analysis method of the data, the mean signal of the control well containing all reaction components was set to 0% inhibition, the mean signal without enzyme addition was set to 100% inhibition, and the inhibition rate was calculated from the mean signal of 2 wells of each test substance test.
as §1, with “a compound” for “k-1:B-1”
For compounds k-1:I-1, k-1:D-1, k-1:J-1, k-1:H-1, k-1:H-7, k-1:B-1, k-5:H-1, k-1:H-3, k-1:D-4 and k-1:I-10, inhibitory activity evaluation (calculation of IC50) was performed on LATS2. The activity was measured using the Off-chip Mobility Shift Assay (MSA method) described below. The compounds were added such that the test concentration of each compound was in 10 steps from the final concentration of 10 μM to 0.3 nM.
5 μL of k-1:I-1, k-1:D-1, k-1:J-1, k-1:H-1, k-1:H-7, k-1:B-1, k-5:H-1, k-1:H-3, k-1:D-4 and k-1:I-10 solutions at 4-fold concentration, 5 μL of substrate/ATP/metal solution at 4-fold concentration, and 10 μL of kinase solution at 2-fold concentration, each prepared with assay buffer (20 mM HEPES, 0.01% Triton X-100, 2 mM DTT, pH 7.5), were mixed in the wells of a polypropylene 384-well plate and reacted at room temperature for 1 or 5 hr. […]

[2] = molecular target: T2, LATS1 (Homo sapiens, UniProt O95835); assay: Kinase Assay method (Fluorospark Kinase/ADP Multi-Assay Kit)
T2 construct: purchased Carna Biosciences
T2 sequence (O95835 589-1130 limits assumed): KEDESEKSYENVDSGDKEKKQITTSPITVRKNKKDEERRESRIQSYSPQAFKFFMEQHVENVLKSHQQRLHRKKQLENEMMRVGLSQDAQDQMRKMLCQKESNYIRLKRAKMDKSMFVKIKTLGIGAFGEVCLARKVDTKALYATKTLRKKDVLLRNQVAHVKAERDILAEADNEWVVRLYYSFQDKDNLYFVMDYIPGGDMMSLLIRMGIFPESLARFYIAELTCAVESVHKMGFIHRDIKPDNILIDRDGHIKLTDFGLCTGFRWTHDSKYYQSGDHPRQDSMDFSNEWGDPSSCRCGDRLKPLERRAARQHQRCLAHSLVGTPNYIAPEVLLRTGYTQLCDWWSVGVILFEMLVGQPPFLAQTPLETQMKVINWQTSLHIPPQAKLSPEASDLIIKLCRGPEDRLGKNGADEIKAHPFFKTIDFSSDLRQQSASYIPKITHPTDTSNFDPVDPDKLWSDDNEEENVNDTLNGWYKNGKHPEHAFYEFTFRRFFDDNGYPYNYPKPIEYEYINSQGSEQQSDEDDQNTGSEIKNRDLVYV
Method: (§2) For compound k-1:B-1 (racemate), GA-002A, GA-002B, GA-005A and GA-005B, inhibitory activity evaluation (calculation of IC50) was performed on LATS1 and LATS2 (manufactured by Carna Biosciences). The activity was measured using the Kinase Assay method described below. The compounds were added such that the test concentration of k-1:B-1 (racemate), GA-002A, GA-002B, GA-005A and GA-005B was in 8 steps (10 μM, 1 μM, 100 nM, […], 10 nM, 3 nM, 1 nM, 0.3 nM) from the final concentration of 10 μM to 0.3 nM.
(§3) As the analysis method of the data, the mean signal of the control well containing reaction components other than the evaluation compound was set to 0% inhibition, the mean signal without enzyme addition was set to 100% inhibition, and the inhibition rate was calculated from the mean signal of 2 wells of each test substance test. IC50 value was calculated using EXSUS (version 7.1.6, manufactured by CAC EXICARE Corporation).
(§4) 2 μL of a compound of the present invention solution at 2.5-fold concentration, 1 μL of substrate at 5-fold concentration (SGKtide: NH2—CKKRNRRLSVA-COOH, manufactured by SignalChem), ATP (manufactured by Sigma-Aldrich), MgCl2 (manufactured by FUJIFILM Wako Pure Chemical Corporation) solution (final concentration 10 μM, 400 μM or 5 mM), and 2 μL of kinase solution at 2.5-fold concentration (final concentration of LATS1 or LATS2 5 μg/mL), each prepared with assay buffer (20 mM HEPES, 0.01% Triton X-100, 2 mM DTT, pH 7.5), were mixed in the wells of a polypropylene 384-well plate (manufactured by Greiner Bio-One, #784900) and reacted at room temperature for 5 hr. Successively, 5 μL detection solution (Fluorospark (registered trade mark)Kinase/ADP Multi-Assay Kit; manufactured by FUJIFILM Wako Pure Chemical Corporation) was added, and the mixture was reacted at room temperature 30 min. Successively, 5 μL of a reaction quenching liquid (Fluorospark (registered trade mark) Kinase/ADP Multi-Assay Kit; manufactured by FUJIFILM Wako Pure Chemical Corporation) was added to discontinue the reaction. Thereafter, the ADP concentration of the reaction solution was quantified by EnSpire (manufactured by PerkinElmer) to detect the kinase reaction.

[3] = molecular target: T3, LATS2 (Homo sapiens, UniProt Q9NRM7); assay: as above
T3 construct: purchased Carna Biosciences
T3 sequence (Q9NRM7 553-1088 limits assumed): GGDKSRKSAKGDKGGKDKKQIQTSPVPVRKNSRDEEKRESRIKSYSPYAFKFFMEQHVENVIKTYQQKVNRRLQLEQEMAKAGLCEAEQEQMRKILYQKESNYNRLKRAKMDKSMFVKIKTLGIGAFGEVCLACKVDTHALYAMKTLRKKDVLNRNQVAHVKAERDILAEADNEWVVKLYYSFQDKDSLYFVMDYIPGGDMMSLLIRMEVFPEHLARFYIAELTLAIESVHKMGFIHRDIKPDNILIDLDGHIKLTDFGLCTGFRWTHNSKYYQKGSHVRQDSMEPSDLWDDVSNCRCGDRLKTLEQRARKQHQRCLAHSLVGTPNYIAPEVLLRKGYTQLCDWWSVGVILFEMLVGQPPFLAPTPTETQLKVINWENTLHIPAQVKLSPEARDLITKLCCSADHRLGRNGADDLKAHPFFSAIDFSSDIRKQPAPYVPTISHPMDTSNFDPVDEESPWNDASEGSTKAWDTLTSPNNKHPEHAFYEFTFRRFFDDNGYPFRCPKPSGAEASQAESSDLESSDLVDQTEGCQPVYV
Method: as §2, §3, §4

[4] = Kinase Assay method, 8 steps 10 μM to 0.3 nM

- IC50 [1]: 46.9 nM
Compound: CCC(=NNC(=O)CNc1cccc(C)c1)c1ccc(O)c(C)c1O [k-1:H-3]

- IC50 [1]: 96 nM
Compound: CC/C(=N\NC(=O)NCc1ccccc1)c1ccc(O)c(C)c1O [k-1:I-1]

- IC50 [1]: 21.6 nM
Compound: Cc1c(O)ccc(C(CC(C)C)=NNC(=O)CNc2ccccc2)c1O [k-5:H-1]

- inhibition at 0.1 µM ([2]; 100 nM, read-out: LARS1 inhibitory rate (%)): 14%
- inhibition at 1 µM ([2]; 1000 nM, read-out: LARS1 inhibitory rate (%)): 45%
- IC50 [2, 4]: 1270 nM
- inhibition at 0.1 µM ([3]; 100 nM, read-out: LARS2 inhibitory rate (%)): 27%
- inhibition at 1 µM ([3]; 1000 nM, read-out: LARS2 inhibitory rate (%)): 55%
- IC50 [3, 4]: 652 nM
Compound: CC/C(=N\NC(=O)[C@H](C)Nc1cccc(O)c1)c1ccc(O)c(C)c1O [GA-005B]

- IC50 [1]: 33.4 nM
Compound: CCC(=NNC(=O)CNc1ccccc1O)c1ccc(O)c(C)c1O [k-1:D-4]

- IC50 [1]: 15 nM
Compound: CCC(=NNC(=O)NC(C)c1cccc(O)c1)c1ccc(O)c(C)c1O (centres unmarked) [k-1:I-10]
